Laboratory results: patent US20100189701A1, “METHODS AND COMPOSITIONS TO TREAT ARRHYTHMIAS” (priority 2007, published 2010)

How the values were obtained:
Cx43 [1] = test: Western blot of HeLa cells expressing Cx43 exposed to 4PB; assay type: cell-based; conditions: HeLa cells transfected with Cx43, increasing doses
From the text: FIG. 34 illustrates a Western blot where HeLa cells expressing Cx43 have been exposed to increasing doses of 4PB.
4PB is an FDA approved drug that can be administered orally, which is being tested for effectiveness in spinal muscular atrophy (Wirth et al., 2006; Brahe et al., 2005), and cystic fibrosis (Singh et al., 2006). […] In addition, stress in the form of mildly elevated temperatures up-regulates connexin expression and increases the total number of functional channels (VanSlyke and Musil, 2005). The chemical chaperone (4PB), a known inhibitor of histone deacetylase, an enzyme associated with inactivation of gene transcription, increases Cx43 production at concentrations in the mM range and exposure times of hours. Not only is Cx43 production elevated 2-5 fold but enhanced dye transfer is observed (Asklund et al., 2004). […] The present inventors have determined that the time course of coupling between hMSCs or model cells with myocytes reaches 50% of maximum within 48 hours.

Cx43, 40, 45 = test: Example 4: chemical chaperone treatment of hMSC/myocyte co-culture, connexin expression and coupling; assay type: cell-based; conditions: initial results
Experimental: hMSCs and myocytes in co-culture are treated with a chemical chaperone (4 PB, 4-Phenylbutric acid, FDA approved) or zp123 (Rotigaptide) a synthetic antiarrhythmia peptide, that increases Cx43 mediated coupling. Western blot analysis and RT-PCR will be used to test protein abundance and expression for Cx43, 40, 45. Dual whole cell patch clamp will be used to determine the time course of junctional coupling. Western blot analysis and RT-PCR to test for protein abundance and expression for Cx43, 40, 45. The effects of 4PB and zp123 on hMSCs alone and myocytes alone will be assesed. Co-culturing of hMSCS and myocytes (atrial or ventricular) will also be done and a vital dye (Valiunas et al., 2005) will be used on hMSCs so that after defined time intervals of co-culture fluorescence activated cell sorting can be used to isolate the cell types and Western blot analysis and RT-PCR can be performed to assess abundance and expression respectively. A peptidase, such as dipeptidyl-peptidase or equivalent, will be used to cleave any zp123 that is secreted into the extracellular space. Dual whole cell patch clamp will be used to determine the time course of junctional coupling over a 96 hour interval at 24, 48 and 96 hours respectively. […] This should translate into enhanced coupling in the form of increased junctional conductance relative to controls.

Cx43 [2] = conditions: mM range, exposure times of hours; cited from earlier work
native SCN5A channel = native SCN5A channel (Homo sapiens, UniProt Q14524); conditions: cited from earlier work
Chain of native SCN5A channel (Q14524 whole entry): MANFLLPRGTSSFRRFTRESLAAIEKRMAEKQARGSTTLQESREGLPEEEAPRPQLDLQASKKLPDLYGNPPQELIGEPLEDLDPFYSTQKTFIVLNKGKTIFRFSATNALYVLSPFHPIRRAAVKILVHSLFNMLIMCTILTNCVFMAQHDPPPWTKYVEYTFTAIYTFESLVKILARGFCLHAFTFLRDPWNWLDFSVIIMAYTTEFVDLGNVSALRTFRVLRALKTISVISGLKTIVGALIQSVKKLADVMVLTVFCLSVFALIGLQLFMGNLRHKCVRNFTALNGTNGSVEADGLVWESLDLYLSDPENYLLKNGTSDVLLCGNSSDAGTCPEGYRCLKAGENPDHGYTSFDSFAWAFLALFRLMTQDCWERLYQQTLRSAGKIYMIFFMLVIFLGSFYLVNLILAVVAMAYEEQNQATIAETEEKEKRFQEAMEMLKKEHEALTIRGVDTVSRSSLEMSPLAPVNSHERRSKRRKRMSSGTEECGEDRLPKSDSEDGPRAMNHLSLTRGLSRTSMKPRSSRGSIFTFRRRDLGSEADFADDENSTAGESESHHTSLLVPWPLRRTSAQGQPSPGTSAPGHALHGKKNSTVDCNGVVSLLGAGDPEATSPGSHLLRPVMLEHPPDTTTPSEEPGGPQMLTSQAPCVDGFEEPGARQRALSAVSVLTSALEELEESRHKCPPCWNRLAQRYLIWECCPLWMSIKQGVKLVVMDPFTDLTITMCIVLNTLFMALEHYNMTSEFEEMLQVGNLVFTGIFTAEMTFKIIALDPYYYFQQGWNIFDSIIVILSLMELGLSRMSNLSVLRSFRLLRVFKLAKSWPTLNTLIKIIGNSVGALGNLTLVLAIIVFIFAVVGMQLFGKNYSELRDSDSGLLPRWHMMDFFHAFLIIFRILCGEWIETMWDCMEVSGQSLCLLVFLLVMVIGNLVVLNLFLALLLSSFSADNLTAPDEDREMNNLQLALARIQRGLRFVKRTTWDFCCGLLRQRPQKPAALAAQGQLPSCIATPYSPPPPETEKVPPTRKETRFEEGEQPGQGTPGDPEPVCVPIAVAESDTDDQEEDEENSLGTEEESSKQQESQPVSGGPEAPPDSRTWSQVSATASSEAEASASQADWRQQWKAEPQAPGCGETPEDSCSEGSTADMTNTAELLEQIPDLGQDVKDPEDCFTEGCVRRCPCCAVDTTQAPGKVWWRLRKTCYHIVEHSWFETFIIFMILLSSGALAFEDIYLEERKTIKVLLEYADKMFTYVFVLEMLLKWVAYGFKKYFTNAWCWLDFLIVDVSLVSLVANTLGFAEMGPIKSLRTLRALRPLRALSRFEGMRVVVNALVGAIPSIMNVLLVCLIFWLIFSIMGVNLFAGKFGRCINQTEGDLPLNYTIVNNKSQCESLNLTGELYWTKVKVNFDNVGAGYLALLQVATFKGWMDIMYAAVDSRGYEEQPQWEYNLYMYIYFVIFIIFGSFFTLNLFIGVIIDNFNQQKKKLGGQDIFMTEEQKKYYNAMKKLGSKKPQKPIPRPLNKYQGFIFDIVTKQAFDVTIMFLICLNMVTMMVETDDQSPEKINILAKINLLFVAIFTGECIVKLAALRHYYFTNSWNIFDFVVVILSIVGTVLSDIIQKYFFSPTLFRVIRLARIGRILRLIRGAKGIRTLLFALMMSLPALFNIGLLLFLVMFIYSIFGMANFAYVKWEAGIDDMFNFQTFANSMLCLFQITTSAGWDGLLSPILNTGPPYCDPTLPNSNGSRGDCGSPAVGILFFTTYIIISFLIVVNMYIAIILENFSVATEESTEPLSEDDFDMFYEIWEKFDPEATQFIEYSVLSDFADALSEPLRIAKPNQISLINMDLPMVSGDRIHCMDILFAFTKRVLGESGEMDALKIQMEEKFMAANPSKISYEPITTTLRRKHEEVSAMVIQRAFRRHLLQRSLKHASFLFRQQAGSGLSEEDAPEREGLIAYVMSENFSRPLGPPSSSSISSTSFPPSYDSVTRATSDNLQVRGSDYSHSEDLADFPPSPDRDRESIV

hMSCs [3] = test: Patch clamp of hMSCs expressing SkM1 Na channel; assay type: cell-based, human; conditions: expressed in hMSCs
From the text: Left: An hMSC transfected with SkM1 was held at potentials between −100 mV and −70 mV and pulsed to 0 mV. Since the current induced from −70 mV is > half the magnitude of the current induced from −100 mV the midpoint of inactivation was positive to −70 mV. Right: hMSCs were held at holding potentials between −100 and −55 mV for 1.5 sec and pulsed to 0 mV for 150 msec. The Boltzmann 2-state fit gives a midpoint of −62.4±3.2 mV and a slope factor of −10.3±3.2 mV.
For research on myocardial infarct-induced ventricular tachycardia, a Na channel gene with a more positive inactivation versus voltage relationship than found normally in cardiac myocytes was required. The skeletal muscle Na channel was investigated because of its reported midpoint of inactivation of −68 mV.

[4] = tested on: neonatal rat ventricular myocyte cultures; test: Conduction velocity in neonatal rat ventricular myocyte cultures on multi-electrode array; assay type: cell-based; conditions: K 5.4 to 10 mM
neonatal myocytes = test: Action potential upstroke in neonatal myocytes under K depolarization; assay type: cell-based, rat
Experimental: FIG. 49: Effect of K depolarization on action potential upstroke in neonatal myocytes in the absence and presence of SKM1 expression. […] The elevated K reduced the upstroke to 68% of its control value (mean value after elevated K is 56% of control). Bottom) In an SKM1 expressing myocyte the upstroke is better preserved, measuring 83% of its control value in elevated K.
Top) In GFP but not SkM1 cultures there is a significant effect on CV of increasing K from 5.4 to 10 mM.
Action potentials are recorded using a patch electrode in whole cell mode on cells superfused at 35° C. These experiments are conducted on monolayer cultures when studying control conditions or when employing viral expression, which achieves near uniform expression. For studying transfected cells, the culture is resuspended on the day of experiment and cells selected on the basis of GFP fluorescence, with the GFP being part of the channel vector or co-transfected with a separate vector. Extracellular and pipette solutions are as previously employed. The external solution contains (mM): NaCl 140, KCl 5.4, CaCl2 1, MgCl2 1, HEPES 5, glucose 10, adjusted to pH 7.4. The internal solution contains (mM): aspartic acid 130, KOH 146, NaCl10, CaCl2 2, EGTA 5, HEPES10, MgATP 2, adjusted to pH 7.2. […] Parameters recorded are Vmax, MDP, action potential amplitude (AMP) and APD50.

epicardial border zone = test: Canine infarct epicardial border zone, electrograms and microelectrode study; assay type: in vivo, dog; conditions: 5 d after infarct and injection
[5] = tested on: neonatal myocyte cultures; test: Optical recording of CV and maximum pacing frequency in neonatal myocyte cultures; assay type: cell-based; conditions: high K (10.4 mM), vs GFP cultures
Experimental: Adenoviral treated neonatal myocyte cultures expressed SkM1 or GFP and were studied in normal and high (10.4 mM) K. Left: The effectiveness of SkM1 expression to maintain high CV persists as pacing frequency increases.
To determine if the gating characteristics of the expressed channel allow this protective effect to persist at higher frequencies, as may occur during reentrant arrhythmias, CV restitution relations in myocyte cultures expressing SkM1 Na channels+GFP and in control cultures (expressing GFP alone) was studied. FIG. 53 illustrates that CV remains greater as frequency increases, both in normal Tyrode's solution and in elevated K solution. Further, in the absence of SkM1, the breakpoint frequency is reduced in high K.

[6] = cited from earlier work
hMSCs [7] = test: Patch clamp of If in hMSCs transfected with mHCN2; assay type: cell-based, human
From the text: FIG. 4: Example of loading hMSC with a gene of interest, studying it biophysically and determining its effect on the heart. Panels A-C study functional expression of If in hMSCs transfected via electroporation with mHCN2 gene. If was expressed in hMSCs transfected with the mHCN2 gene (B) but not in nontransfected stem cells (A). C, Fit by the Boltzmann equation to the normalized tail currents of If gives a midpoint of −91.8+/−0.9 mV and a slope of 8.8+/−0.5 mV (n=9). If was fully activated around −140 mV with an activation threshold of −60 mV. […] Voltage protocol was to hold at −30 mV and hyperpolarize for 1.5 seconds to voltages between −40 and −160 mV in 10-mV increments followed by a 1.5-second voltage step to +20 mV to record the tail currents. Panels D-E show function of hMSCs loaded with HCN2 gene 10 days after injection into canine LV anterior wall in dog in complete heart block. Panels D, placebo experiment, dog injected with saline. […] Panels E, dog injected with approximately 1.2 million hMSCs loaded with HCN2.

[8] = tested on: neonatal and adult rat ventricular myocytes; conditions: adenoviral expression; cited from earlier work

O=C(O)CCCc1ccccc1 [4PB, 4-Phenylbutric acid]
Cx43 expression (Cx43 [1]): up-regulates Cx43 | connexin up-regulation (Cx43, 40, 45): causes up-regulation | Cx43 production elevated (Cx43 [2]): 2-5 fold

[Cd+2] [Cd^2+]
Kd (native SCN5A channel): a few hundred

SkM1: skeletal muscle sodium channel, expressed from gene in hMSCs or myocytes
midpoint of inactivation (hMSCs [3]): −62.4±3.2 mV | Slope factor (hMSCs [3]; Boltzmann 2-state fit): −10.3±3.2 mV | midpoint of inactivation (hMSCs [3]; listed as skeletal muscle Na channel): −62 mV | midpoint of inactivation (hMSCs [3]; listed as skeletal muscle sodium channel): −62 mV | effect of membrane depolarization on CV and V′max [4]: significantly reduces CV and V′max of control cells, but not the SkM1 expressing cells | Vmax (neonatal myocytes; 10 K): > 100 V/s | action potential upstroke, % of control value (neonatal myocytes; elevated K (10 mM) vs 5.4 mM): 83% | electrogram at injected epicardial border zone site (epicardial border zone): narrow spike | Vmax, injected site 1 vs non-injected site 2 (epicardial border zone; equivalent membrane depolarization): nearly twice that of site 2 | break-point frequency (resistance to rhythm instabilities) [5]: higher break-point frequencies | inactivation midpoint ([6]; as stated in Example 16 group description): −65 mV | activation midpoint ([6]; as worded): −68 mV | Slope factor ([6]; steady state inactivation): −5.4 mV

B1: mHCN2: pacemaker channel gene (protein, UniProt O88703 1-863, looked up)
Potassium/sodium …: MDARGGGGRPGDSPGTTPAPGPPPPPPPPAPPQPQPPPAPPPNPTTPSHPESADEPGPRARLCSRDSACTPGAAKGGANGECGRGEPQCSPEGPARGPKVSFSCRGAASGPSAAEEAGSEEAGPAGEPRGSQASFLQRQFGALLQPGVNKFSLRMFGSQKAVEREQERVKSAGAWIIHPYSDFRFYWDFTMLLFMVGNLIIIPVGITFFKDETTAPWIVFNVVSDTFFLMDLVLNFRTGIVIEDNTEIILDPEKIKKKYLRTWFVVDFVSSIPVDYIFLIVEKGIDSEVYKTARALRIVRFTKILSLLRLLRLSRLIRYIHQWEEIFHMTYDLASAVMRICNLISMMLLLCHWDGCLQFLVPMLQDFPSDCWVSINNMVNHSWSELYSFALFKAMSHMLCIGYGRQAPESMTDIWLTMLSMIVGATCYAMFIGHATALIQSLDSSRRQYQEKYKQVEQYMSFHKLPADFRQKIHDYYEHRYQGKMFDEDSILGELNGPLREEIVNFNCRKLVASMPLFANADPNFVTAMLTKLKFEVFQPGDYIIREGTIGKKMYFIQHGVVSVLTKGNKEMKLSDGSYFGEICLLTRGRRTASVRADTYCRLYSLSVDNFNEVLEEYPMMRRAFETVAIDRLDRIGKKNSILLHKVQHDLSSGVFNNQENAIIQEIVKYDREMVQQAELGQRVGLFPPPPPPQVTSAIATLQQAVAMSFCPQVARPLVGPLALGSPRLVRRAPPGPLPPAASPGPPAASPPAAPSSPRAPRTSPYGVPGSPATRVGPALPARRLSRASRPLSASQPSLPHGVPAPSPAASARPASSSTPRLGPAPTARTAAPSPDRRDSASPGAASGLDPLDSARSRLSSNL
activation threshold (hMSCs [7]): −60 mV | voltage of full activation (hMSCs [7]): around −140 mV | midpoint of If activation (Boltzmann fit to tail currents) (hMSCs [7]; hMSCs transfected via electroporation, n=9): −91.8+/−0.9 mV | slope of If activation (hMSCs [7]; n=9): 8.8+/−0.5 mV | voltage dependence of activation, neonatal vs adult myocytes [8]: about 20 mV
